The source made the active and inactive calls. The rule behind the calls is not given here.

In this assay the target is UPR counterscreen luciferase reporter, luminescence. As to the kind of experiment: activators in UPR counterscreen luciferase reporter, dose response, counter-screen for adaptive UPR activator project, cell-based, luminescence (AID 489027). For orientation: A counterscreen serves to expose hits that act by an unwanted route or on another target.
Broadly, the EC50 is the concentration needed to bring the measured effect to its halfway point. For `COc1ccc(/C=c2\s/c(=C(/C#N)C(=O)NCc3ccco3)n(-c3ccccc3)c2=O)cc1`, the EC50 result was “inactive”.
The result for `O=C1c2ccccc2C(=O)N1/N=C/c1ccc(O)c(O)c1` reads “inactive”; that for `O=c1[nH]c(CSc2ncnc3sc(-c4ccccc4)cc23)nc2ccccc12`, > 80 µM (inactive); that for `Cc1nc(Nc2nc(-c3ccccc3)cc(=O)[nH]2)nc2ccccc12`, > 80 µM (inactive).
The result for `CCOC(=O)c1nnc(-c2ccc(C)cc2)nc1Oc1ccc(Cl)cc1Cl` reads 13.1 µM; that for `Cc1sc(NC(=O)c2cc(-c3ccc(Cl)cc3)nc3ccccc23)c(C(N)=O)c1C`, > 80 µM (inactive); that for `O=C(C[C@@H]1C/C=C/CC[C@H](Cc2ccc(F)cc2)C(=O)OC[C@@H](Cc2ccccc2)NC1=O)N[C@H](CO)Cc1ccccc1`, 14.4 µM.
As to `O=C(Oc1ccccc1/C=C\C(=O)c1cc2ccccc2o1)c1cccc(F)c1`, the 50% effective concentration (EC50) is 8.33 µM.
To `N#Cc1c(-c2ccc3c(c2)OCO3)ccn2nc(-c3cccc(C(F)(F)F)c3)nc12` belongs “inactive”; to `O=C(O)c1ccc(N2C(=O)/C(=C/c3ccc(-c4ccc([N+](=O)[O-])cc4)o3)C=C2c2ccccc2)cc1`, > 80 µM (inactive).
To `Cc1nc(SCC(=O)Nc2ccc(F)cc2)c(C#N)c(C)c1CC(=O)c1ccc(Br)cc1` belongs > 80 µM (inactive).
For `CCOC(=O)c1c(NC(=O)/C=C/C(=O)O)sc(C)c1-c1ccc(C(C)(C)C)cc1`, the EC50 was > 80 µM (inactive).
As to `O=Cc1cc2ccccc2nc1SCc1ccc(Cl)cc1`, the EC50 result is “inactive”.
To `O=C(/C=C/c1ccc(Cl)cc1)NC(=S)Nc1ccc(N2CCOCC2)c(Cl)c1` belongs > 80 µM (inactive); to `COc1ccc(-c2ccc3c(c2)S(=O)(=O)c2cccc(C(=O)NCCOc4ccccc4Cl)c2C3=O)cc1OC`, > 80 µM (inactive).
The result for `Cc1cccc2sc(NC(=O)c3cc(S(=O)(=O)N(C)C)ccc3N3CCCC3)nc12` reads 7.43 µM.
To `Cc1cccc(NC(=O)CSc2nc(C)c(CC(=O)c3ccc(Br)cc3)c(C)c2C#N)c1C` belongs > 80 µM (inactive); to `COc1ccc(-c2nnc(SCC(=O)Nc3sc4c(c3C#N)CCCC4)n2-c2ccccc2)cc1`, 16.1 µM; to `COc1ccc2nc(/C(C#N)=C\c3ccc(Oc4ccc([N+](=O)[O-])cn4)cc3)[nH]c2c1`, > 80 µM (inactive).
In the case of `COc1ccc(-c2cc(-c3ccccc3)c(C#N)c(S(C)(=O)=O)n2)cc1`, the EC50 is 5.05 µM.
Consider `CCOC(=O)c1c(NC(=O)c2cc3n(n2)C(C(F)(F)F)CC(c2cccs2)N3)sc(C)c1C` (stereo not drawn), for which the concentration for a half-maximal effect (EC50) was 8.7 µM.
In the case of `Cc1nc(NC(=O)CSc2ccc(-c3nc4ccccc4[nH]3)cn2)sc1C`, the EC50 entry is “inactive”.
Take `Cc1nn(-c2ccccc2)c(C)c1/C=N/NC(=O)CSc1nc2ccccc2c(=O)n1-c1ccc(Br)cc1`: the EC50 was 7.19 µM.
For `CCOc1ccc(Cn2c3ccc(OC)cc3c3nc4ccccc4nc32)cc1OC`, the EC50 entry was “inactive”.
`COc1ccc(Cn2c(SCc3ccccc3C)nc3cc(OC)c(OC)cc3c2=N)cc1`: the EC50 was 9.65 µM.
To `CCOC(=O)c1nnc(-c2ccc(C)cc2)nc1Sc1cccc(Cl)c1` belongs > 80 µM (inactive); to `CCCCCCCC(=O)Nc1ccc(C(=O)N/N=C/c2cccc([N+](=O)[O-])c2)cc1`, 2.33 µM.
To `Cc1ccc(NC(=O)CSc2nc3ccccc3c3nc4ccccc4n23)cc1` belongs 6.26 µM; to `Cc1ccc(Nc2nc(-c3c(C)nc4ccccn34)cs2)cc1`, > 80 µM (inactive); to `COc1cc(/C=N/Nc2nc(Nc3ccc(C)cc3)nc(-n3nc(C)cc3C)n2)cc(OC)c1OC`, > 80 µM (inactive).
For `CCCc1nc2ccccc2c(=O)n1/N=C/c1ccc(O)c(O)c1`, the EC50 is 15 µM.
Take `COc1cc(OC)cc(C(=O)Nc2ccc3nc4n(c(=O)c3c2)CCCCC4)c1`: the EC50 was > 80 µM (inactive).
To `COc1ccccc1N=Cc1c(O)c2ccccc2oc1=O` belongs 9.23 µM; to `CCOC(=O)c1c(NC(=O)c2cc(C)on2)c2cc([N+](=O)[O-])ccc2n1C`, > 80 µM (inactive); to `N#CCC(=O)N/N=C/c1cn(Cc2cccc3ccccc23)c2ccccc12`, > 80 µM (inactive).
The result for `CC(C)(C)c1ccc(C(=O)Nc2ccc(O)c3c(=O)cc(-c4cccc(Cl)c4)oc23)cc1` reads > 80 µM (inactive).
Turning to `CCCc1nc2c(c(=O)c3ccccc3n2C)c(=O)n1C1CCCCCC1`, the EC50 was > 80 µM (inactive).
For `Oc1cccc(-c2nc3c4c(ncn3n2)-c2ccccc2CC42CCCC2)c1`, the EC50 was 18.6 µM.
To `Cn1nnnc1Sc1ncnc2scc(-c3ccc(Cl)cc3)c12` belongs 17.1 µM; to `NC1=NC[C@@H](CC2CCCCC2)N1CCc1cc(C(F)(F)F)cc(C(F)(F)F)c1`, > 80 µM (inactive).
To `CCc1nn(-c2cc(Oc3cccc4ccccc34)nc(-c3ccccc3)n2)c(N)c1C#N` belongs > 80 µM (inactive); to `CCOc1ccc(-c2nnc(SCC(=O)Nc3ccc4c(c3)c3ccccc3n4CC)n2N)cc1`, 14.6 µM; to `CCCCC1CCC(C(=O)N(CC(C)C)c2c(N)n(CCCC)c(=O)[nH]c2=O)CC1` (stereo not drawn), > 80 µM (inactive).
Regarding `Cc1cccc2cc(C(c3nnnn3Cc3ccccc3)N3CCCc4ccccc43)c(=O)[nH]c12` (stereo not drawn), the EC50 result is “inactive”.
The result for `Nc1c(C(=O)Nc2ccc(S(=O)(=O)N3CCCC3)cc2)sc2nc3ccc(OC(F)(F)F)cc3cc12` reads 4.39 µM; that for `O=C1NC(=O)N(Cc2ccccc2Cl)C(=O)/C1=C/c1cccs1`, 13 µM.
To `COc1cc2[nH]c3c(N4CCN(c5ccc(Cl)cc5)CC4)ncnc3c2cc1OC` belongs > 80 µM (inactive); to `Cc1ccc(NC(=O)c2ccc(N/N=C/c3cccc(O)c3)c([N+](=O)[O-])c2)cc1`, 6.64 µM.
To `OC(CNCC1CCCO1)Cn1c2ccc(Cl)cc2c2cc(Cl)ccc21` (stereo not drawn) belongs > 80 µM (inactive); to `COc1ccc2nc(C)cc(SCC(=O)N/N=C/c3cccc4ccccc34)c2c1`, “inactive”.
Regarding `O=C(N/N=C/c1ccccc1Cl)c1[nH]c2ccc(Br)cc2c1-c1ccccc1`, the EC50 result is “inactive”.
For the compound `CCOC(=O)c1nnc(-c2ccccc2)nc1Sc1ccccc1Cl`, the EC50 is 14.3 µM.
To `NS(=O)(=O)c1ccc(N/N=C/c2cn(-c3ccccc3)nc2-c2cccs2)c([N+](=O)[O-])c1` belongs > 80 µM (inactive); to `COc1ccc(C(CCNC(C)c2ccccc2)c2ccc(F)cc2)cc1` (stereo not drawn), “inactive”; to `NS(=O)(=O)c1ccc(N/N=C/c2cn(-c3ccccc3)nc2-c2ccccc2)c([N+](=O)[O-])c1`, 7.34 µM.
To `Cc1cc(SCC(=O)c2ccc(O)c(O)c2)n2nc(C)c(-c3ccccc3)c2n1` belongs > 80 µM (inactive); to `COc1ccc(/C=N/Nc2nnc(-c3ccccc3)c(=O)[nH]2)cc1`, 15.6 µM.
As for `COc1ccc(-c2nn(-c3ccccc3)cc2/C=C/C(=O)OCC(=O)Nc2cccc(C#N)c2)cc1`, the EC50 is > 80 µM (inactive).
The result for `CCC(=O)Nc1ccc(NC(=O)CSc2nc3cc4c(cc3cc2C)CCC4)cc1` reads > 80 µM (inactive).
The result for `COc1ccc(-c2csc(NC(=S)NC(=O)/C=C/c3ccco3)n2)cc1Br` reads “inactive”.
The result for `CCOc1ccccc1-n1c(SCC(=O)Nc2ccc(CC)cc2)nc2n[nH]c(C)c2c1=N` reads 5.3 µM; that for `Cc1nc2ccccc2n1-c1nc(-c2ccco2)cc(C(F)(F)F)n1`, 11.1 µM.
Turning to `COc1ccc2cc1Oc1ccc(cc1)C[C@H]1c3c(cc(OC)c4c3Oc3c(ccc5c3[C@H](C2)N(C)CC5)O4)CCN1C`, the EC50 was 7.91 µM.
To `O=C(NC(=S)Nc1ccc(NC(=O)c2cccs2)cc1)c1cc2ccccc2o1` belongs “inactive”.
On to `CCOc1cc(/C=N/N=C(\N)c2nonc2N)cc(Br)c1OCc1cccc2ccccc12`, for which the EC50 is > 80 µM (inactive).
For `COc1c(Cl)cc(Cl)cc1/C=N/NC(=O)c1nnn(-c2nonc2N)c1CN1CCC(C)CC1`, the EC50 entry was “inactive”.
To `O=C(Nc1ccc(O)c2c(=O)cc(-c3cccc(Cl)c3)oc12)c1cccc(Cl)c1` belongs “inactive”.
For the compound `COC(=O)c1ccc(COc2ccccc2/C=C(\C#N)C(=O)Nc2c(C)cccc2C)cc1`, the EC50 was 17.4 µM.
For `COc1cc(C(=O)Nc2nc(-c3ccc(Cl)cc3)c(C)s2)ccc1OCC(=O)Nc1ccc(F)cc1`, the EC50 is 17.9 µM.
To `COc1ccc2cc3c(N)nn(C(=O)C4CCC(C(C)(C)C)CC4)c3nc2c1` (stereo not drawn) belongs > 80 µM (inactive); to `Cc1ccc(-c2[nH]ncc2/C=N/n2c(COc3ccccc3)nc3ccccc3c2=O)cc1`, “inactive”; to `Cc1ccc(Cl)cc1N1CCN(Cc2nc3c(c(=O)[nH]c(=O)n3C)n2CCc2ccccc2)CC1`, 16.7 µM.
The result for `COc1cccc(-c2sc3ccccc3c2-c2ccc(OCCN(C)C)cc2)c1` reads 12.6 µM; that for `Cc1ccc(S(=O)(=O)N(CC(=O)N/N=C/c2ccc(F)cc2)c2cccc3cccnc23)cc1`, 1.92 µM.
With `Cc1ccc2c(n1)sc1c(-c3ccc(Br)cc3)c(C#N)c(N)nc12`, the EC50 was > 80 µM (inactive).
In the case of `CCOC(=O)N1CCN(S(=O)(=O)c2ccc(C(=O)Nc3nc4c(s3)CC(C)CC4)cc2)CC1` (stereo not drawn), the EC50 is 9.29 µM.
For the compound `Cc1ccc(NC(=O)c2cc(S(=O)(=O)N(C)C)ccc2N2CCCC2)cc1F`, the EC50 entry was “inactive”.
As to `O=C(CSCc1ccc(Cl)cc1)Nc1ccc(-c2nnc(-c3ccccc3)o2)cc1`, the EC50 was > 80 µM (inactive).
For `CN(C)CC/C=C1\c2ccc(F)cc2Sc2cc(F)c(Cl)cc21`, the EC50 is > 80 µM (inactive).
For the compound `CCc1ccc2nc(N(CCCN(C)C)C(=O)c3ccc(S(=O)(=O)N4CCc5ccccc5C4)cc3)sc2c1`, the EC50 is 12.7 µM.
The result for `O=C(/C(=N/N=C/c1ccc(O)c(O)c1)c1ccccc1)c1ccccc1` reads 8.07 µM; that for `CCc1cccc(CC)c1NC(=O)/C(C#N)=C/c1ccccc1C(F)(F)F`, > 80 µM (inactive).
`COc1cc(SC#N)ccc1N=Cc1c(C)[nH]n(-c2ccc(Cl)cc2)c1=O`: the EC50 was 7.41 µM.

Source of the values: PubChem BioAssay AID489027 (Sanford-Burnham Center for Chemical Genomics, 2010).
